According to patent US8145430B2, “Predictive scoring function for estimating binding affinity” (Schrodinger, LLC, priority 2005, dated 2012):
Like-named read-outs stand apart in the source and are kept apart here.

Columns and labels:
[1] = system: protein-ligand complexes in the PDB; conditions: experimental binding affinity, cited from earlier work
Glur2 receptors = conditions: series of Glur2 receptors; cited from earlier work
Streptavidin = Streptavidin (Streptomyces avidinii, UniProt P22629); test: Calculated versus experimental binding affinity, streptavidin and biotin (pdb 1stp), docked structure; conditions: using a docked structure
Source text: FIG. 8 illustrates Streptavidin in biotin (pdb 1stp). Both special hydrogen bonds in this complex, and hydrophobic enclosure of the hydrogen bonding region, are shown.
Here three correlated hydrogen bonds occur in a hydrophobically enclosed region. Up to the present time, no empirical scoring function has explained the exceptionally large binding affinity of streptavidin in biotin. Once the triple, enclosed hydrogen bonding motif is recognized and assigned an appropriate score, the deviation between calculated and experimental binding affinity, using a docked structure, is only 1.5 kcal/mole.

aldose reductase = aldose reductase (Homo sapiens, UniProt P15121); conditions: lef3 structure of aldose reductase; cited from earlier work
[2] = column beside SP Score (repeat)

Streptavidin, sequence (P22629 25-183): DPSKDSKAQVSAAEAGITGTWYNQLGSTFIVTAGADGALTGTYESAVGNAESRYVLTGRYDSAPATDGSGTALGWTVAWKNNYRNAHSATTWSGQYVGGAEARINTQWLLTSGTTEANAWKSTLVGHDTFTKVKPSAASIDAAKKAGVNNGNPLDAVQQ

Question: Which results are given for `Nc1c2c(nc3ccccc13)CCCC2` [1acj]?
Answer: ΔG_exp [1, 2]: -10 kcal/mol; ΔG_exp ([1]; column beside XP Score): -10 kcal/mol

Question: For `CNC(=O)C(F)(F)C(O)(O)[C@H](CC(C)C)NC(=O)[C@@H](NC(=O)[C@@H](NC(=O)CC(C)C)C(C)C)C(C)C` [1apv], which ΔG_exp [1, 2] is on record?
Answer: The ΔG_exp was -11.3 kcal/mol.

Question: What about the ΔG_exp ([1]; column beside XP Score) of the same molecule?
Answer: The ΔG_exp was -11.3 kcal/mol.

Question: With `N=C(N)c1ccccc1` [1bra] as the molecule, how does the ΔG_exp [1, 2] read?
Answer: Its ΔG_exp is -2.5 kcal/mol.

Question: What about the ΔG_exp ([1]; column beside XP Score) of the same molecule?
Answer: The ΔG_exp was -2.5 kcal/mol.

Question: What does the source list for `CC(C)c1ccc(NC(=O)[C@H](Cc2ccccc2)NC(=O)[C@H](CCCCN)NC(=O)C(F)(F)F)cc1` [1elc]?
Answer: ΔG_exp [1, 2]: -9.8 kcal/mol; ΔG_exp ([1]; column beside XP Score): -9.8 kcal/mol

Question: For `CC(=O)N[C@H](C(=O)N[C@@H](Cc1ccccc1)[C@@H](O)CN(CC1CCCCC1)NC(=O)[C@@H](NC(C)=O)C(C)C)C(C)C` [1hih], which ΔG_exp [1, 2] is on record?
Answer: Its ΔG_exp is -11.3 kcal/mol.

Question: And the ΔG_exp ([1]; column beside XP Score)?
Answer: Its ΔG_exp is -11.3 kcal/mol.

Question: For `CC1(C)S[C@H]([C@H](NC(=O)Cc2ccccc2)C(=O)NCc2ccccc2)N[C@H]1C(=O)N[C@@H](CO)Cc1ccccc1` [1htf], which ΔG_exp [1, 2] is on record?
Answer: The ΔG_exp was -11.1 kcal/mol.

Question: And the ΔG_exp ([1]; column beside XP Score)?
Answer: Its ΔG_exp is -11.1 kcal/mol.

Question: Which results are given for `CC(=O)N[C@H]1[C@H]([C@H](O)[C@H](O)CO)OC(C(=O)O)=C[C@@H]1O` [1nnb]?
Answer: ΔG_exp [1, 2]: -7.2 kcal/mol; ΔG_exp ([1]; column beside XP Score): -7.2 kcal/mol

Question: Which ΔG_exp [1, 2] does the source give for `O=C(O)[C@H](O)[C@@H](O)[C@H](O)[C@H](O)COP(=O)(O)O` [1pgp] here?
Answer: The ΔG_exp was -7.8 kcal/mol.

Question: And the ΔG_exp ([1]; column beside XP Score)?
Answer: Its ΔG_exp is -7.8 kcal/mol.

Question: What does the source list for `Cc1ccc(S(=O)(=O)N[C@@H](Cc2cccc(C(=N)N)c2)C(=O)N2CCCCC2)cc1` [1pph]?
Answer: ΔG_exp [1, 2]: -8.5 kcal/mol; ΔG_exp ([1]; column beside XP Score): -8.5 kcal/mol

Question: What does the source list for `COC(=O)[C@H](Cc1ccccc1)OP(=O)(O)[C@H](CC(C)C)NC(=O)[C@@H](NC(=O)[C@@H](NC(=O)CC(C)C)C(C)C)C(C)C` [1ppl]?
Answer: ΔG_exp [1, 2]: -11.5 kcal/mol; ΔG_exp ([1]; column beside XP Score): -11.5 kcal/mol

Question: For `CC(C)C[C@H](N[C@@H](CCc1ccccc1)C(=O)O)C(=O)N[C@@H](Cc1c[nH]c2ccccc12)C(=O)O` [1tmn], which ΔG_exp [1, 2] is on record?
Answer: The ΔG_exp was -10 kcal/mol.

Question: What about the ΔG_exp ([1]; column beside XP Score) of the same molecule?
Answer: Its ΔG_exp is -10 kcal/mol.

Question: Which results are given for `NCC1CCCCC1` [1tng]?
Answer: ΔG_exp [1, 2]: -4 kcal/mol; ΔG_exp ([1]; column beside XP Score): -4 kcal/mol

Question: With `NCCCCc1ccccc1` [1tni] as the molecule, how does the ΔG_exp [1, 2] read?
Answer: The ΔG_exp was -2.3 kcal/mol.

Question: And the ΔG_exp ([1]; column beside XP Score)?
Answer: The ΔG_exp was -2.3 kcal/mol.

Question: Which results are given for `CC12CCC(CC1=O)C2(C)C` (centres unmarked) [2cpp]?
Answer: ΔG_exp [1, 2]: -8.3 kcal/mol; ΔG_exp ([1]; column beside XP Score): -8.3 kcal/mol

Question: What does the source list for `O=C(O)[C@@H](O)Cc1ccccc1` [2ctc]?
Answer: ΔG_exp [1, 2]: -5.3 kcal/mol; ΔG_exp ([1]; column beside XP Score): -5.3 kcal/mol

Question: What does the source list for `CN(Cc1cnc2nc(N)nc(N)c2n1)c1ccc(C(=O)N[C@@H](CCC(=O)O)C(=O)O)cc1` [4dfr]?
Answer: ΔG_exp [1, 2]: -13.2 kcal/mol; ΔG_exp ([1]; column beside XP Score): -13.2 kcal/mol

Question: What does the source list for `O=C(N[C@H]1c2ccccc2C[C@H]1O)[C@H](Cc1ccccc1)CC(O)C[C@@H](Cc1ccccc1)C(=O)N[C@H]1c2ccccc2C[C@H]1O` [4phv]?
Answer: ΔG_exp [1, 2]: -12.5 kcal/mol; ΔG_exp ([1]; column beside XP Score): -12.5 kcal/mol

Question: What does the source list for `CC(C)C[C@H](N)C(=O)NO` [4tln]?
Answer: ΔG_exp [1, 2]: -5.1 kcal/mol; ΔG_exp ([1]; column beside XP Score): -5.1 kcal/mol

Question: Which results are given for `C[C@H]1O[C@H](O)[C@H](O)[C@@H](O)[C@H]1O` [7abp]?
Answer: ΔG_exp [1, 2]: -8.1 kcal/mol; ΔG_exp ([1]; column beside XP Score): -8.1 kcal/mol

Question: For `N[C@@H](CCC(=O)O)C(=O)O` [Ligand 1ftj], which ΔG (experimental binding energies) (Glur2 receptors) is on record?
Answer: Its ΔG (experimental binding energies) is 8.5 kcal/mol.

Question: With `O=c1[nH]c2cc([N+](=O)[O-])c([N+](=O)[O-])cc2[nH]c1=O` [Ligand 1ftl] as the molecule, how does the ΔG (experimental binding energies) (Glur2 receptors) read?
Answer: Its ΔG (experimental binding energies) is 8.3 kcal/mol.

Question: With `Cc1o[nH]c(=O)c1C[C@H](N)C(=O)O` [Ligand 1ftm] as the molecule, how does the ΔG (experimental binding energies) (Glur2 receptors) read?
Answer: Its ΔG (experimental binding energies) is 8.8 kcal/mol.

Question: With `N[C@@H](Cn1cc(F)c(=O)[nH]c1=O)C(=O)O` [Ligand 1mqi] as the molecule, how does the ΔG (experimental binding energies) (Glur2 receptors) read?
Answer: The ΔG (experimental binding energies) was 11.9 kcal/mol.

Question: With `O=C(O)CCCC[C@@H]1SC[C@@H]2NC(=O)N[C@@H]21` [biotin] as the molecule, how does the “deviation between calculated and experimental binding affinity” value (Streptavidin) read?
Answer: The value was 1.5 kcal/mol.

Question: For `NC(=O)[C@@H]1C[C@]2(NC(=O)NC2=O)c2cc(F)ccc2O1` [fiderestat], which binding affinity experimentally (aldose reductase) is on record?
Answer: Its binding affinity experimentally is “low nanomolar”.
